Literature values as cited in patent publication US20230149383A1, “QUINOLINE COMPOUNDS FOR TREATING LUNG, LIVER, AND KIDNEY DISEASES, DISORDERS, OR CONDITIONS” (Aldeyra Therapeutics, Inc., priority 2020, published 2023).

Experiments:
minimal change disease = details: Hogan et al. 2013; cited from earlier work
[1] = test system: precision-cut liver slices (PCLS); details: addition of 4-methylpyrazole; cited from earlier work
ocular inflammation = details: Phase 2 and Phase 3 clinical trials; cited from earlier work

C[C@]12C=CC(=O)C=C1CC[C@@H]1[C@@H]2[C@@H](O)C[C@@]2(C)[C@H]1CC[C@]2(O)C(=O)CO [prednisolone]
complete remission, share of adults with minimal change disease (minimal change disease): over 80%

Cc1cn[nH]c1 [4-methylpyrazole]
ethanol-induced impairments (fatty liver, redox state, albumin secretion) [1]: reversed

CC(C)(O)c1nc2ccc(Cl)cc2cc1N [reproxalap]
benefit in ocular inflammation, including dry eye disease and allergic conjunctivitis (ocular inflammation): beneficial
